From article PMC12005229, “Final results from the phase Ia/Ib study of the novel bromodomain and extra-terminal domain inhibitor, BI 894999, in patients with advanced solid tumors or diffuse large B-cell lymphoma” (ESMO Open, 2025)
“And” between values parts separate entries of the source, which are not always exact repeats. Identical values can stand only once. “Also recorded” adds a separate entry of the source. Like-named read-outs stand apart in the source and are kept apart here.

Assays:
[1] = review of non-Good Laboratory Practice preclinical assays for cardiac toxicity; conditions: review prompted by elevated troponin T
Description: Some patients experienced elevated troponin T levels, leading to a review of troponin T levels, electrocardiogram data, clinical summaries, and non-Good Laboratory Practice preclinical assays. […] This also corresponded with a lack of cardiotoxicity reported in preclinical studies in animals[17] and this was not a toxicity previously reported with BET inhibitors.[35] It was concluded that the cause of troponin T elevation may be multifactorial, but not clinically significant to preclude further clinical development.[17]

[2] = system: patients with solid tumors; design: method as in PMID 37556913; conditions: cited from earlier work; for maximum tolerated dose (MTD): solid tumors
[3] = plasma pharmacokinetics, LC-MS/MS, noncompartmental analysis; type: in vivo, human; conditions: for Tmax / AUC(0-t) / Cmax: human, plasma, oral
Experimental: Samples were collected for PK analysis in cycle 1: 5 min pre-dose, 30 min, 1, 2, 3, 4, 6, and 8 h after drug administration on day 1 (schedules B and C) and on day 14 (for schedule B) or day 21 (for schedule C); 5 min pre-dose on days 8 and 12 (for schedule B) and at time of the visit on day 8 (168 h) for schedule C; 5 min pre-dose on day 18 (at time of the visit) for schedule B; and on day 22 (504 and 512 h) and day 29 (at time of the visit) for schedule C. For schedule B, a few additional samples were also taken in cycle 2: 5 min pre-dose, 2, 4, and 8 h on day 1, and 5 min pre-dose on day 2.
BI 894999 plasma concentrations were determined using a validated assay based on liquid chromatography coupled with tandem mass spectrometry. PK parameters were determined by noncompartmental analysis using the Phoenix WinNonlin software (Phoenix 6.3, Certara USA Inc., Princeton, NJ).

patients with DLBCL = test: phase Ia DLBCL extension: DLTs, MTD, adverse events, exposure; type: in vivo; conditions: for DLT grade ≥3 / DLT / DLT duration / DLT grade / DLT outcome: individual patient events
Description: The extension to the phase Ia dose escalation evaluated schedules B and C for patients with DLBCL.

[4] = DLBCL phase Ia extension n = 18
[5] = DLBCL, on-treatment period, schedule B 2.0 mg
[6] = DLBCL, on-treatment period, schedule C 4.0/2.0 mg
[7] = DLBCL, on-treatment period, schedule C 5.0/2.5 mg
[8] = DLBCL, schedule B 1.5 mg, MTD evaluation period
[9] = DLBCL, schedule B 2.0 mg, MTD evaluation period
[10] = DLBCL, schedule B 2.5 mg, MTD evaluation period
[11] = phase Ia DLBCL, MTD evaluation period

## CNc1nc(-c2nc3ccc(N4CCN(C)CC4)cc3n2Cc2ccccc2)cn2c(C)nnc12 [BI 894999]
[1]
  preclinical evidence of cardiac toxicity: no preclinical evidence of potential cardiac toxicity
[2]; initial phase Ia, investigator's assessment
  disease control (CR, PR or SD): 26.0%
[2]; initial phase Ia
  best response PR: 3.9%
  patients with grade ≥3 DLTs: 22 of 77
[2]; schedule A (days 1-21 of 3-week cycle)
  maximum tolerated dose (MTD): 1.5 mg
[2]; schedule B (days 1-14 of 3-week cycle)
  maximum tolerated dose (MTD): 2.5 mg
[3]; 1.5 mg, phase Ia DLBCL, schedule B 1.5 mg, day 1, read-out: tmax median
  Tmax: 2.02 h
[3]; 1.5 mg, phase Ia DLBCL, schedule B 1.5 mg, day 14, read-out: tmax,ss median
  Tmax: 2.56 h
[3]; 2 mg, phase Ia DLBCL, schedule B 2.0 mg, day 1, read-out: tmax median
  Tmax: 2.01 h
[3]; 2 mg, phase Ia DLBCL, schedule B 2.0 mg, day 14, read-out: AUC0–24,ss gMean (gCV, %)
  AUC(0-t): 0.12 µM·h
[3]; 2 mg, phase Ia DLBCL, schedule B 2.0 mg, day 14, read-out: tmax,ss median
  Tmax: 2.12 h
[3]; 2 mg, phase Ib solid tumors, schedule B 2.0 mg, day 1, read-out: tmax median
  Tmax: 2 h
[3]; 2 mg, phase Ib solid tumors, schedule B 2.0 mg, day 14, read-out: tmax,ss median
  Tmax: 2 h
[3]; 2.5 mg, phase Ia DLBCL, schedule B 2.5 mg, day 1, read-out: AUC0–24 gMean (gCV, %)
  AUC(0-t): 0.0533 µM·h
[3]; 2.5 mg, phase Ia DLBCL, schedule B 2.5 mg, day 1, read-out: tmax median
  Tmax: 2.04 h
[3]; 2.5 mg, phase Ib, schedule B 2.5 mg including NUT carcinoma, day 1, read-out: tmax median
  Tmax: 2.01 h
[3]; 2.5 mg, phase Ib, schedule B 2.5 mg including NUT carcinoma, day 14, read-out: AUC0–24,ss gMean (gCV, %)
  AUC(0-t): 0.125 µM·h
[3]; 2.5 mg, phase Ib, schedule B 2.5 mg including NUT carcinoma, day 14, read-out: tmax,ss median
  Tmax: 2 h
[3]; 4 mg, phase Ia DLBCL, schedule C 4.0/2.0 mg, day 1 after loading dose, read-out: AUC0–24 gMean (gCV, %)
  AUC(0-t): 0.138 µM·h
[3]; 4 mg, phase Ia DLBCL, schedule C 4.0/2.0 mg, day 1 after loading dose, read-out: tmax median
  Tmax: 2 h
[3]; 6 mg, phase Ib, schedule C 6.0/3.0 mg NUT carcinoma only, day 1 after loading dose, read-out: AUC0–24 gMean (gCV, %)
  AUC(0-t): 0.214 µM·h
[3]; 6 mg, phase Ib, schedule C 6.0/3.0 mg NUT carcinoma only, day 1 after loading dose, read-out: tmax median
  Tmax: 2 h
[3]; phase Ib, schedule C 6.0/3.0 mg NUT carcinoma only, day 21, read-out: AUC0–24,ss gMean (gCV, %)
  AUC(0-t): 0.149 µM·h
[3]; phase Ib, schedule C 6.0/3.0 mg NUT carcinoma only, day 21, read-out: tmax,ss median
  Tmax: 2.05 h
[3]; single dose day 1 and once-daily multiple doses days 14 or 21, read-out: median time to maximum plasma concentration (tmax)
  Tmax: ~2 h
[3]; phase Ia DLBCL, schedule B 2.0 mg, day 14, read-out: Cmax,ss gMean (gCV, %)
  Cmax: 7.67 nM
[3]; phase Ia DLBCL, schedule B 2.5 mg, day 1, read-out: Cmax gMean (gCV, %)
  Cmax: 4.75 nM
[3]; within a dosing schedule and indication
  dose dependence of plasma concentrations: increased with increasing dose
Patients with DLBCL; [4]
  AEs leading to death: 1 (5.6) n (%)
  AEs leading to discontinuation of trial drug: 4 (22.2) n (%)
  AEs leading to dose reduction: 3 (16.7) n (%)
  Any AE: 18 (100) n (%)
  DLT in on-treatment period: 8 (44.4) n (%)
  Treatment-related AEs: 15 (83.3) n (%)
  Treatment-related serious AEs: 2 (11.1) n (%)
Patients with DLBCL; DLBCL phase Ia n = 18
  Anemia, treatment-related AE, any grade: 5 (27.8) n (%)
  Anemia, treatment-related AE, grade ≥3: 5 (27.8) n (%)
  Asthenia, treatment-related AE, any grade: 2 (11.1) n (%)
  Asthenia, treatment-related AE, grade ≥3: 0 n (%)
  Decreased appetite, treatment-related AE, any grade: 4 (22.2) n (%)
  Decreased appetite, treatment-related AE, grade ≥3: 0 n (%)
  Decreased platelet count, treatment-related AE, any grade: 2 (11.1) n (%)
  Decreased platelet count, treatment-related AE, grade ≥3: 2 (11.1) n (%)
  Diarrhea, treatment-related AE, any grade: 9 (50.0) n (%)
  Diarrhea, treatment-related AE, grade ≥3: 0 n (%)
  Dysgeusia, treatment-related AE, any grade: 2 (11.1) n (%)
  Dysgeusia, treatment-related AE, grade ≥3: 0 n (%)
  Epistaxis, treatment-related AE, any grade: 2 (11.1) n (%)
  Epistaxis, treatment-related AE, grade ≥3: 0 n (%)
  Fatigue, treatment-related AE, any grade: 4 (22.2) n (%)
  Fatigue, treatment-related AE, grade ≥3: 0 n (%)
  Hematoma, treatment-related AE, any grade: 2 (11.1) n (%)
  Hematoma, treatment-related AE, grade ≥3: 0 n (%)
  Muscle spasms, treatment-related AE, any grade: 2 (11.1) n (%)
  Muscle spasms, treatment-related AE, grade ≥3: 0 n (%)
  Nausea, treatment-related AE, any grade: 5 (27.8) n (%)
  Nausea, treatment-related AE, grade ≥3: 0 n (%)
  Neutropenia, treatment-related AE, any grade: 4 (22.2) n (%)
  Neutropenia, treatment-related AE, grade ≥3: 3 (16.7) n (%)
  Thrombocytopenia, treatment-related AE, any grade: 11 (61.1) n (%)
  Thrombocytopenia, treatment-related AE, grade ≥3: 8 (44.4) n (%)
  Troponin increased, treatment-related AE, any grade: 2 (11.1) n (%)
  Troponin increased, treatment-related AE, grade ≥3: 1 (5.6) n (%)
Patients with DLBCL; DLBCL, on-treatment period, schedule B 1.5 mg
  DLT grade ≥3: Increased troponin
Patients with DLBCL; [5]
  DLT duration, melena: 7 days
  DLT grade, melena: 3
  DLT grade ≥3: Thrombocytopenia; also recorded: Melena
Patients with DLBCL; DLBCL, on-treatment period, schedule B 2.5 mg
  DLT grade ≥3: Thrombocytopenia; also recorded: Sepsis; also recorded: Febrile neutropenia
Patients with DLBCL; [6]
  DLT grade, decreased platelet count: 4
  DLT grade ≥3: Decreased platelet
Patients with DLBCL; [7]
  DLT duration, thrombocytopenia: 8 days
  DLT grade, neutropenia: 4
  DLT grade, thrombocytopenia: 4
  DLT grade ≥3: Neutropenia; also recorded: Thrombocytopenia
Patients with DLBCL; [8]
  DLT: Increased troponin
  DLT duration: 5 days
  DLT grade: 3
  DLT outcome: Recovered
Patients with DLBCL; [9]
  DLT: Thrombocytopenia
  DLT duration: 11 days
  DLT grade: 4
  DLT outcome: Not recovered
Patients with DLBCL; [10]
  DLT: Thrombocytopenia; also recorded: Sepsis; also recorded: Febrile neutropenia
  DLT duration: 5 days and 6 days and 7 days and 2 days
  DLT grade: 4 and 3
  DLT outcome: Not recovered; also recorded: Recovered
Patients with DLBCL; DLBCL, schedule B (days 1-14/21)
  maximum tolerated dose (MTD): 1.5 mg
Patients with DLBCL; DLBCL, schedule C
  maximum tolerated dose (MTD): not declared
Patients with DLBCL; phase Ia DLBCL
  anemia, grade ≥3 treatment-related AE: 27.8%
  anemia, treatment-related AE of any grade: 27.8%
  decreased platelet count, grade ≥3 treatment-related AE: 11.1%
  decreased platelet count, treatment-related AE of any grade: 11.1%
  diarrhea, treatment-related AE of any grade: 50.0%
  discontinuation because of DLT: 11.1%
  discontinuation because of other AEs: 5.6%
  discontinuation because of progressive disease: 83.3%
  dose discontinuations due to AEs: 22.2%
  dose reductions due to AEs: 16.7%
  fatigue, treatment-related AE of any grade: 22.2%
  increased troponin, treatment-related AE of any grade: 11.1%
  lymph node pain leading to dose discontinuation: 5.6%
  median time to first dose reduction: 36.0 days
  nausea, treatment-related AE of any grade: 27.8%
  neutropenia leading to dose discontinuation: 5.6%
  neutropenia, grade ≥3 treatment-related AE: 16.7%
  neutropenia, treatment-related AE of any grade: 22.2%
  patients who underwent dose reductions: 16.7%
  patients with AEs of any grade: 100%
  patients with treatment-related AEs: 83.3%
  thrombocytopenia leading to dose discontinuation: 11.1%
  thrombocytopenia, grade ≥3 treatment-related AE: 44.4%
  thrombocytopenia, treatment-related AE of any grade: 61.1%
Patients with DLBCL; [11]
  DLT grade 3 febrile neutropenia: 7.7%
  DLT grade 3 increased troponin: 7.7%
  DLT grade 4 sepsis: 7.7%
  DLT grade 4 thrombocytopenia: 23.1%
  assessable patients with DLTs: 4/17
Patients with DLBCL; phase Ia DLBCL, schedule B
  total patients with DLTs during the on-treatment period: 5 n
Patients with DLBCL; phase Ia DLBCL, schedule B 1.5 mg, MTD evaluation period
  patients with DLTs: 1 n
Patients with DLBCL; phase Ia DLBCL, schedule B 2.0 mg, MTD evaluation period
  patients with DLTs: 1 n
Patients with DLBCL; phase Ia DLBCL, schedule B 2.5 mg, MTD evaluation period
  patients with DLTs: 2 n
Patients with DLBCL; phase Ia DLBCL, schedule B (n = 13), MTD evaluation period
  patients with DLTs: 30.8%
Patients with DLBCL; phase Ia DLBCL, schedule C
  total patients with DLTs during the on-treatment period: 3 n
Patients with DLBCL; phase Ia DLBCL, schedule C, MTD period
  patients with DLTs: No patients receiving schedule C experienced DLTs; also recorded: a No DLBCL patients on schedule C experienced DLTs on BI 894999
